Reference: ChEMBL document CHEMBL1147787, “Synthesis and preliminary antitumor activity evaluation of a DHA and doxorubicin conjugate” (Bioorg Med Chem Lett, 2006)
Active and inactive are the calls of the source. The rule behind the calls is not given here.

Experiments:
[1] = test system: Mus musculus; assay: Antitumor activity in BDF1 mouse bearing L1210 leukemia assessed as increase in life span at 5 ug/kg, ip relative to control; assay type: functional
[2] = test system: L1210; assay: Antitumor activity against mouse L1210 cell line assessed as inhibition of [3H]thymidine incorporation; assay type: functional, cell-based
[3] = test system: Mus musculus; assay: Antitumor activity in BDF1 mouse bearing L1210 leukemia assessed as survival for 30 days at 8 ug/kg, ip; assay type: functional, organism-based
[4] = test system: Mus musculus; assay: Antitumor activity in BDF1 mouse bearing L1210 leukemia assessed as survival for 30 days at 5 ug/kg, ip; assay type: functional, organism-based
[5] = test system: Mus musculus; assay: Antitumor activity in BDF1 mouse bearing L1210 leukemia assessed as loss of body weight at 8 ug/kg, ip; assay type: functional
[6] = test system: Mus musculus; assay: Antitumor activity in BDF1 mouse bearing L1210 leukemia assessed as loss of body weight at 5 ug/kg, ip; assay type: functional
[7] = test system: Mus musculus; assay: Antitumor activity in BDF1 mouse bearing B16 melanoma assessed as loss of body weight at 5 mg/kg, ip; assay type: functional; details: route intraperitoneal
[8] = test system: Mus musculus; assay: Antitumor activity in BDF1 mouse bearing B16 melanoma assessed as inhibition of tumor growth at 5 mg/kg, ip relative to control; assay type: functional; details: route intraperitoneal
[9] = test system: Mus musculus; assay: Antitumor activity in BDF1 mouse bearing L1210 leukemia assessed as survival for 30 days at 32 ug/kg, ip; assay type: functional, organism-based
[10] = test system: Mus musculus; assay: Antitumor activity in BDF1 mouse bearing B16 melanoma assessed as loss of body weight at 30 mg/kg, ip; assay type: functional; details: route intraperitoneal
[11] = test system: Mus musculus; assay: Antitumor activity in BDF1 mouse bearing L1210 leukemia assessed as loss of body weight at 32 ug/kg, ip; assay type: functional
[12] = test system: Mus musculus; assay: Antitumor activity in BDF1 mouse bearing L1210 leukemia assessed as loss of body weight at 16 ug/kg, ip; assay type: functional
[13] = test system: Mus musculus; assay: Antitumor activity in BDF1 mouse bearing L1210 leukemia assessed as increase in life span at 32 ug/kg, ip relative to control; assay type: functional
[14] = test system: Mus musculus; assay: Antitumor activity in BDF1 mouse bearing L1210 leukemia assessed as increase in life span at 16 ug/kg, ip relative to control; assay type: functional
[15] = test system: Mus musculus; assay: Antitumor activity in BDF1 mouse bearing L1210 leukemia assessed as increase in life span at 8 ug/kg, ip relative to control; assay type: functional
[16] = test system: Mus musculus; assay: Antitumor activity in BDF1 mouse bearing B16 melanoma assessed as loss of body weight at 20 mg/kg, ip; assay type: functional; details: route intraperitoneal
[17] = test system: Mus musculus; assay: Antitumor activity in BDF1 mouse bearing B16 melanoma assessed as inhibition of tumor growth at 30 mg/kg, ip relative to control; assay type: functional; details: route intraperitoneal
[18] = test system: Mus musculus; assay: Antitumor activity in BDF1 mouse bearing B16 melanoma assessed as inhibition of tumor growth at 20 mg/kg, ip relative to control; assay type: functional; details: route intraperitoneal

Structure (SMILES) | Activity [1] [%] | IC50 [2] [nM] | Activity [3] | Activity [4] | Activity [5] [%] | Activity [6] [%] | Activity [7] [%] | inhibition in vivo at 5 mg/kg [8] [%] | Activity [9] | Activity [10] [%] | Activity [11] [%] | Activity [12] [%] | Activity [13] [%] | Activity [14] [%] | Activity [15] [%] | Activity [16] [%] | inhibition in vivo at 30 mg/kg [17] [%] | inhibition in vivo at 20 mg/kg [18] [%]
COc1cccc2c1C(=O)c1c(O)c3c(c(O)c1C2=O)C[C@@](O)(C(=O)CO)C[C@@H]3O[C@H]1C[C@H](N)[C@H](O)[C@H](C)O1 [DOXORUBICIN] | 53 | 150 | inactive | inactive | -19 | -7 | -10 | 35 |  |  |  |  |  |  |  |  |  | 
CC/C=C/C/C=C/C/C=C/C/C=C/C/C=C/C/C=C/CCC(=O)N/N=C(\CO)[C@]1(O)Cc2c(O)c3c(c(O)c2[C@@H](OC2C[C@H](N)[C@H](O)[C@H](C)O2)C1)C(=O)c1c(OC)cccc1C3=O.Cl (stereo partly specified) |  | 1400 | inactive |  | -2 |  |  |  | inactive | -6 | -11 | -4 | 80 | 107 | 53 | -6 | 70 | 53
